Literature values in PubChem BioAssay AID1259409 (Chemical Carcinogenesis Research Information System (CCRIS), 2018).

Tested on: rodent chemically induced tumor inhibition, incidence and multiplicity
Experiment: CCRIS tumor inhibitor studies

Cn1c(=O)c2[nH]cnc2n(C)c1=O
tumour outcome (control, treated, inhibition, significance) (Carcinogen: 1,2-DIMETHYLHYDRAZINE, 540-73-8, Dose [Inhibitor]: 0, 600 MG/L IN DRINKING WATER FOR DURATION OF STUDY BEGINNING 7 D PRIOR TO CARCINOGEN TREATMENT (STUDY DURATION: 8 MO), Route [Inhibitor]: ORAL, Species: RAT, Strain/Sex: BD6/MALE, Target Tissue: Type of Lesion: INTESTINE: TUMOR, Dose [Carcinogen]: 20 MG/KG BW 1/WK FOR 20 WK, Promoter: NONE USED): 100%, 100%, 0%, not significant | tumour outcome (control, treated, inhibition, significance) (Carcinogen: 4-(METHYLNITROSAMINO)-1-(3-PYRIDLY)-1-BUTANONE [64091-91-4], Dose [Inhibitor]: 2.5 MG/KG BW 3X/WK FOR 31 WK BEGINNING 1 WK POST LAST CARCINOGEN DOSE (STUDY DURATION: 52 WK), Route [Inhibitor]: SUBCUTANEOUS, Species: HAMSTER, Strain/Sex: SYRIAN/MALE, Target Tissue: Type of Lesion: LUNG: TUMOR, Dose [Carcinogen]: 10 MG/KG BW 3X/WK FOR 20 WK (STUDY DURATION: 52 WK), Promoter: NONE): 12/15 (80.0%), 15/15 (100.0%), -25%, not calculated | tumour outcome (control, treated, inhibition, significance) (Carcinogen: 4-(METHYLNITROSAMINO)-1-(3-PYRIDLY)-1-BUTANONE [64091-91-4], Dose [Inhibitor]: 2.5 MG/KG BW 3X/WK FOR 31 WK BEGINNING 1 WK POST LAST CARCINOGEN DOSE (STUDY DURATION: 52 WK), Route [Inhibitor]: SUBCUTANEOUS, Species: HAMSTER, Strain/Sex: SYRIAN/MALE, Target Tissue: Type of Lesion: NASAL CAVITY: TUMOR, Dose [Carcinogen]: 10 MG/KG BW 3X/WK FOR 20 WK (STUDY DURATION: 52 WK), Promoter: NONE): 4/15 (26.7%), 4/15 (26.7%), 0%, not calculated | tumour outcome (control, treated, inhibition, significance) (Carcinogen: DIETHYLNITROSAMINE, 55-18-5, Dose [Inhibitor]: 0, 600 MG/L IN DRINKING WATER BEGINNING 3 D PRIOR TO FIRST CARCINOGEN DOSE AND CONTINUING TO 14 D POST LAST CARCINOGEN D, Route [Inhibitor]: ORAL, Species: RAT, Strain/Sex: BD6/FEMALE, Target Tissue: Type of Lesion: ESOPHAGUS: TUMOR, Dose [Carcinogen]: 80 MG/KG BW 1/WK FOR 8 WK, Promoter: NONE USED): 15%, 9%, 40%, not significant | tumour outcome (control, treated, inhibition, significance) (Carcinogen: DIETHYLNITROSAMINE, 55-18-5, Dose [Inhibitor]: 0, 600 MG/L IN DRINKING WATER BEGINNING 3 D PRIOR TO FIRST CARCINOGEN DOSE AND CONTINUING TO 14 D POST LAST CARCINOGEN D, Route [Inhibitor]: ORAL, Species: RAT, Strain/Sex: BD6/FEMALE, Target Tissue: Type of Lesion: LIVER: TUMOR, Dose [Carcinogen]: 80 MG/KG BW 1/WK FOR 8 WK, Promoter: NONE USED): 90%, 97%, -8%, not significant | tumour outcome (control, treated, inhibition, significance) (Carcinogen: DIETHYLNITROSAMINE, 55-18-5, Dose [Inhibitor]: 0, 600 MG/L IN DRINKING WATER FOR DURATION OF STUDY BEGINNING 4 D POST CARCINOGEN TREATMENT (STUDY DURATION: 6 MO), Route [Inhibitor]: ORAL, Species: RAT, Strain/Sex: BD6/FEMALE, Target Tissue: Type of Lesion: ESOPHAGUS: TUMOR, Dose [Carcinogen]: 80 MG/KG BW 1/WK FOR 8 WK, Promoter: NONE USED): 15%, 29%, -93%, not significant | tumour outcome (control, treated, inhibition, significance) (Carcinogen: DIETHYLNITROSAMINE, 55-18-5, Dose [Inhibitor]: 0, 600 MG/L IN DRINKING WATER FOR DURATION OF STUDY BEGINNING 4 D POST CARCINOGEN TREATMENT (STUDY DURATION: 6 MO), Route [Inhibitor]: ORAL, Species: RAT, Strain/Sex: BD6/FEMALE, Target Tissue: Type of Lesion: LIVER: TUMOR, Dose [Carcinogen]: 80 MG/KG BW 1/WK FOR 8 WK, Promoter: NONE USED): 90%, 97%, -8%, not significant | tumour outcome (control, treated, inhibition, significance) (Carcinogen: DIETHYLNITROSAMINE, 55-18-5, Dose [Inhibitor]: 0, 600 MG/L IN DRINKING WATER FOR DURATION OF STUDY BEGINNING 7 D PRIOR TO CARCINOGEN TREATMENT (STUDY DURATION: 6 MO), Route [Inhibitor]: ORAL, Species: RAT, Strain/Sex: BD6/FEMALE, Target Tissue: Type of Lesion: ESOPHAGUS: TUMOR, Dose [Carcinogen]: 80 MG/KG BW 1/WK FOR 8 WK, Promoter: NONE USED): 14%, 17%, -21%, not significant | tumour outcome (control, treated, inhibition, significance) (Carcinogen: DIETHYLNITROSAMINE, 55-18-5, Dose [Inhibitor]: 0, 600 MG/L IN DRINKING WATER FOR DURATION OF STUDY BEGINNING 7 D PRIOR TO CARCINOGEN TREATMENT (STUDY DURATION: 6 MO), Route [Inhibitor]: ORAL, Species: RAT, Strain/Sex: BD6/FEMALE, Target Tissue: Type of Lesion: LIVER: TUMOR, Dose [Carcinogen]: 80 MG/KG BW 1/WK FOR 8 WK, Promoter: NONE USED): 100%, 90%, 10%, not significant | tumour outcome (control, treated, inhibition, significance) (Carcinogen: N-ETHYL-N-NITROSOUREA, 759-73-9, Dose [Inhibitor]: 0, 1000 MG/KG IN DIET FOR 12 MO ADMINISTERED TO OFFSPRING OF CARCINOGEN-TREATED MOTHERS (STUDY DURATION: 12 MO), Route [Inhibitor]: ORAL, Species: RAT, Strain/Sex: ALBINO/MALE, FEMALE, Target Tissue: Type of Lesion: BRAIN: TUMOR, Dose [Carcinogen]: 75 MG/KG BW ADMINISTERED INTRAPERITONEALLY TO MOTHERS 21 D POST CONCEPTION, Promoter: NONE USED): 53/63 (84%), 21/41 (51%), 39%, p<0.05 | tumour outcome (control, treated, inhibition, significance) (Carcinogen: N-ETHYL-N-NITROSOUREA, 759-73-9, Dose [Inhibitor]: 0, 1000 MG/KG IN DIET FOR 12 MO ADMINISTERED TO OFFSPRING OF CARCINOGEN-TREATED MOTHERS (STUDY DURATION: 12 MO), Route [Inhibitor]: ORAL, Species: RAT, Strain/Sex: ALBINO/MALE, FEMALE, Target Tissue: Type of Lesion: KIDNEY: TUMOR, Dose [Carcinogen]: 75 MG/KG BW ADMINISTERED INTRAPERITONEALLY TO MOTHERS 21 D POST CONCEPTION, Promoter: NONE USED): 23/63 (37%), 6/41 (15%), 59%, p<0.05 | tumour outcome (control, treated, inhibition, significance) (Carcinogen: N-ETHYL-N-NITROSOUREA, 759-73-9, Dose [Inhibitor]: 0, 1000 MG/KG IN DIET FOR 12 MO ADMINISTERED TO OFFSPRING OF CARCINOGEN-TREATED MOTHERS (STUDY DURATION: 12 MO), Route [Inhibitor]: ORAL, Species: RAT, Strain/Sex: ALBINO/MALE, FEMALE, Target Tissue: Type of Lesion: PERIPHERAL NERVES: TUMOR, Dose [Carcinogen]: 75 MG/KG BW ADMINISTERED INTRAPERITONEALLY TO MOTHERS 21 D POST CONCEPTION, Promoter: NONE USED): 24/63 (38%), 5/41 (12%), 68%, p<0.05 | tumour outcome (control, treated, inhibition, significance) (Carcinogen: N-ETHYL-N-NITROSOUREA, 759-73-9, Dose [Inhibitor]: 0, 1000 MG/KG IN DIET FOR 12 MO ADMINISTERED TO OFFSPRING OF CARCINOGEN-TREATED MOTHERS (STUDY DURATION: 12 MO), Route [Inhibitor]: ORAL, Species: RAT, Strain/Sex: ALBINO/MALE, FEMALE, Target Tissue: Type of Lesion: SPINAL CHORD: TUMOR, Dose [Carcinogen]: 75 MG/KG BW ADMINISTERED INTRAPERITONEALLY TO MOTHERS 21 D POST CONCEPTION, Promoter: NONE USED): 17/63 (27%), 9/41 (22%), 19%, not significant | tumour outcome (control, treated, inhibition, significance) (Carcinogen: URETHANE, 51-79-6, Dose [Inhibitor]: 0.05 UMOL/G BW GIVEN AT 6 HR INTERVALS DURING PERIOD OF 0 TO 36 HR AFTER CARCINOGEN TREATMENT FOLLOWED BY 5 MO OBSERVATI, Route [Inhibitor]: INTRAPERITONEAL, Species: MOUSE, Strain/Sex: ICR/FEMALE, Target Tissue: Type of Lesion: LUNG: PAPILLARY ADENOMA, Dose [Carcinogen]: 0.1 MG/G BW ONCE, Promoter: NONE USED): 31/59 (53%), 25/43 (58%), -9%, not significant

CC(C)C1CCC(O)CC1 (stereo not given)
tumour outcome (control, treated, inhibition, significance) (Carcinogen: 7,12-DIMETHYLBENZ[A]ANTHRACENE, 57-97-6, Dose [Inhibitor]: 0, 12 NMOL PER REPEATED APPLICATION FOR 20 WK (STUDY DURATION: 20 WK), Route [Inhibitor]: DERMAL, Species: MOUSE, Strain/Sex: CD-1/FEMALE, Target Tissue: Type of Lesion: SKIN: TUMOR, Dose [Carcinogen]: 100 UG ONCE, Promoter: OKADAIC ACID, 78111-17-8): 87%, 50%, 43%, not calculated
